According to patent US20090005345A1, “Detoxification of Shellfish” (priority 2005, published 2009):

Tested on: bivalves
Experiment: Feed test: detoxification of DSP-toxin containing bivalves by feeding in land-based vessels, DSP by HPLC
Type: in vivo
Conditions: Test 5; additive given separately in addition to bioprotein; 7.2° C.
Excerpt: Seawater from a depth of 45 metres in the Eidfjord, with a salinity of 33-34 per mille, was pumped up into a reservoir on land. The water was then passed into the test vessels. The bivalves were evenly distributed on the mesh/grating in a layer of about 10 cm in thickness. The vessel diameter is about 70 cm. In these small scale tests importance was given to ensuring that oxygen should not be a limiting factor. That is to say that there is sufficient flow-through of water to obtain approximate oxygen saturation in the outflow. The amount of water through each vessel was about 8 litres per minute.
Feeding was effected automatically batchwise throughout the day. That is to say that the daily consumption of the feed slurry according to Example 1 was filled into a tank once a day. The slurry runs from this tank to the bivalve vessel cascade via a valve. In our tests we chose to feed batchwise once an hour. Such portion feeding is important in order to obtain an even distribution to the whole bivalve population. The feed was added in the course of a few seconds. […]
In the case of all the tests, samples were taken immediately prior to the test start and after given time periods. […] The samples were analysed at the Norwegian College of Veterinary Medicine using HPLC (High Performance Liquid Chromatography).
The half-life for DSP was calculated using the following formula: […]

## O=C1O[C@H]([C@@H](O)CO)C(O)=C1O [Vitamin C]
  Effect on DSP half-life of additive used in addition to bioprotein: no effect
